Tests used:
ACE = ACE (Homo sapiens, UniProt P12821); test: ACE inhibition, spectrophotometric substrate; format: biochemical
Source text: The enzymatic activity of ACE is monitored using the spectrophotometric substrate described by Holmquist et al. [Anal. Biochem. 95, 540-548 (1979)]and the buffer system described by Ryan [Methods of Enzymatic Analysis, 3rd ed., H. U. Bergmeyer, editor; vol. V, Verlag Chemie, Weinheim, 1983, pp. 20-34].
(§1) The results of the analysis of enzymatic activity as described in Table 1 indicate that the compounds of the present invention are inhibitors of enkephalinase as well as inhibitors of ACE.

Enkephalinase = molecular target: T1, Enkephalinase (Rattus norvegicus, UniProt P07861); test: Enkephalinase inhibition, fluorometric, substrate dansyl-D-AlaGly(p-nitro)PheGly; format: biochemical; conditions: 50 mM HEPES, pH 7.4, 25° C., 12 μM substrate; read-out: ENK, Ki
T1 construct: Enkephalinase is partially purified from rat kidney; from tissue; host or cells: rat kidney (microvilli fraction; Triton X-100 extract or proteolytic solubilisation, then Mono Q FPLC)
T1 sequence (P07861 1-750): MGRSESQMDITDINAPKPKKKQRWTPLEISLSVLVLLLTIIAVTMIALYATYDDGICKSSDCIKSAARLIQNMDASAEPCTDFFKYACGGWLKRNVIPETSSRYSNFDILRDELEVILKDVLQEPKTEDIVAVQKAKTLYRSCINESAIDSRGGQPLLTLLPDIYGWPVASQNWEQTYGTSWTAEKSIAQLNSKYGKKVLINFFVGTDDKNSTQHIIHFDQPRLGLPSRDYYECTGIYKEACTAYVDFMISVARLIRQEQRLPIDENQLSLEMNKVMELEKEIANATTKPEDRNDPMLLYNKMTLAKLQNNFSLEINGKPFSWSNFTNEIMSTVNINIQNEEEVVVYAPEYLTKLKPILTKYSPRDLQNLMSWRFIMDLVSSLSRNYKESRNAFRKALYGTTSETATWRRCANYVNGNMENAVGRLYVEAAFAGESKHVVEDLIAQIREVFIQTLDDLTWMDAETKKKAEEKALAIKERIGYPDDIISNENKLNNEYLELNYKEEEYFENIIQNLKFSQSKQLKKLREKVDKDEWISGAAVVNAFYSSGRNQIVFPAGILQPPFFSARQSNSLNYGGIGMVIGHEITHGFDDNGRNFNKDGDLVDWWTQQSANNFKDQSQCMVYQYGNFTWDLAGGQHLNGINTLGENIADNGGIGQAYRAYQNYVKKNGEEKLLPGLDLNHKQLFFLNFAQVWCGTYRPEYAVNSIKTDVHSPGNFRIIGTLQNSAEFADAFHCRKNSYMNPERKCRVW
Source text: Enkephalinase is partially purified from rat kidney. The enzyme is extracted from the microvilli fraction by using Triton X-100 according to the method of Malfroy and Schwartz [J. Biol. Chem. 259, 14365-14370 (1984)] or by using a proteolytic treatment according to the method of Almenoff and Orlowski [Biochem. 22 590-599 (1983)]. The enzyme is further purified by anio exchange chromatography (Mono Q™ column, Pharmacia) using a Pharmacia FPLC system. The enzyme activity may be measured by the fluorometric methods of Florentin et al. [Anal. Biochem. 141, 62-69 (1984 ) ] or of Almenoff and Orlowski [J. Neurochemistry 42,151-157 (1984)]. […] The substrate (and inhibitor) is added from a concentrated stock solution in DMSO (up to 0.1 mL DMSO final volume). The enzyme in a small volume (approximately 0.1 μg of FPLC purified protein) is added to initiate the reaction and the rate of fluorecense increase is recorded continuously using a fluorometer (excitation at 339 nm, emission at 562 nm).
as §1

myointimal proliferation = conditions: after vascular injury; Davis et al. 1992; cited from earlier work

Chain of ACE (P12821 30-1306, species assumed): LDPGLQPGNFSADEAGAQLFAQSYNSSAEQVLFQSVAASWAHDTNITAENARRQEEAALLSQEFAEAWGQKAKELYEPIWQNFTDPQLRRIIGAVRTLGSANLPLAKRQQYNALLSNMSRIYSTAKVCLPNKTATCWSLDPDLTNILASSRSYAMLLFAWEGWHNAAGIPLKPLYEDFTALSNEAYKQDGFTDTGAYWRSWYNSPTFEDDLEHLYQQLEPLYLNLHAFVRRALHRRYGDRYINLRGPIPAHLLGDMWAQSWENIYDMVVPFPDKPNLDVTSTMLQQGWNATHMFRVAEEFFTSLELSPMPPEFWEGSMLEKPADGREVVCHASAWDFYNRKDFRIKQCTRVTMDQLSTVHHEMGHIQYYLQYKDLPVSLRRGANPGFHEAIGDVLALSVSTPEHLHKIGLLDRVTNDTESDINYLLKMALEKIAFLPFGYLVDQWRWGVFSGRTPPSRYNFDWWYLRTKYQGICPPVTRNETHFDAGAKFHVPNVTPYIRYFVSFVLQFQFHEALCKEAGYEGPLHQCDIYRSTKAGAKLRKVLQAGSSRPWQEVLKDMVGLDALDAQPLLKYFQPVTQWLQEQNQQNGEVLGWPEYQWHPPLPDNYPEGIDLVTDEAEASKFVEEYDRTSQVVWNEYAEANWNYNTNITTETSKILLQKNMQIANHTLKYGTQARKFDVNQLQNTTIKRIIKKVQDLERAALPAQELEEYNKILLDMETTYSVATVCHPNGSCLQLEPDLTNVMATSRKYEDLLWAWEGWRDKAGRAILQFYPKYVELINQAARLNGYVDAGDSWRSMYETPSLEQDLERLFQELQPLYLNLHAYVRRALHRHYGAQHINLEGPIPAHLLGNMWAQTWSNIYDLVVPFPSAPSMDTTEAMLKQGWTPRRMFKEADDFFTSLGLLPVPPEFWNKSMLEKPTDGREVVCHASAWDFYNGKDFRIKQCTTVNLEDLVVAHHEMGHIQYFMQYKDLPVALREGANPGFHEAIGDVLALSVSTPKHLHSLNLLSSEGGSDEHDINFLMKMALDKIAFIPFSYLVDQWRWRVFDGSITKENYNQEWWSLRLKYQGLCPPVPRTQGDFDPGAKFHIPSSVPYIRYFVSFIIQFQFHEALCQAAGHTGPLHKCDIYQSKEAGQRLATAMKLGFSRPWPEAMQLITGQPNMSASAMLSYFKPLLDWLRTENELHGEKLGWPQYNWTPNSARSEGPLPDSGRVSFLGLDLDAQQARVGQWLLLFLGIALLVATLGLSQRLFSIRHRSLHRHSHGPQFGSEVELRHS

| Ki (ACE) [nM] | Ki (Enkephalinase) [nM] | Structure (SMILES) | myointimal proliferation (myointimal proliferation) |
| --- | --- | --- | --- |
| > 250 | 0.8 | O=C(O)[C@@H]1CCC[C@@H]2c3ccccc3C[C@H](NC(=O)C3(CCS)Cc4ccccc4C3)C(=O)N21 [100,273, [4S-[4α, 7α(R*), 12bβ]]-7-[(2-(2-mercaptoethyl)-2-oxoindan)methylamino]1,2,3,4,6,7,8,12b-octahydro-6-oxopyrido[2,1-a][2]benzazepine-4-carboxylic acid] | – |
| < 500 | < 0.2 | O=C(O)[C@@H]1CCC[C@@H]2c3ccccc3C[C@H](NC(=O)C3(CS)Cc4ccccc4C3)C(=O)N21 [100,346, [4S-[4α, 7α(R*), 12bβ]]-7-[(2-Mercaptomethyl-2-oxoindan)methylamino]-1,2,3,4,6,7,8,12b-octahydro-6-oxopyrido[2,1-a][2]benzazepine-4-carboxylic acid] | – |
| > 7 | 4 | CC(C)(S)C(=O)N[C@H]1Cc2ccccc2[C@H]2CCC[C@@H](C(=O)O)N2C1=O [101,069, [4S-[4α, 7α(R*), 12bβ]]-7-[(2-Thio-1-oxo-2-methyl)-2-propylamino]-1,2,3,4,6,7,8,12b-octahydro-6-oxopyrido[2,1-a][2]benzazepine-4-carboxylic acid] | – |
| < 45 | < 0.2 | O=C(O)[C@@H]1CCC[C@@H]2c3ccccc3C[C@H](NC(=O)C3(S)Cc4ccccc4C3)C(=O)N21 [102,708, [4S-[4α, 7α(R*), 12bβ]]-7-[(2-Thio-2-oxoindan)methylamino]-1,2,3,4,6,7,8,12b-octahydro-6-oxopyrido[2,1-a][2]benzazepine-4-carboxylic acid] | – |
| < 7 | < 0.2 | O=C(O)[C@@H]1CCC[C@@H]2c3ccccc3C[C@H](NC(=O)C3(S)CCCC3)C(=O)N21 [102,769, [4S-[4α, 7α(R*), 12bβ]]-7-[(1-Thio-1-oxocyclopentane)methylamino]-1,2,3,4,6,7,8,12b-octahydro-6-oxopyrido[2,1-a][2]benzazepine-4-carboxylic acid] | – |
| – | – | CCOC(=O)[C@H](CCSC)NC(=O)[C@@H](CSC(C)=O)Cc1ccccc1C [SCH42495] | prevent myointimal proliferation after vascular injury |
